The results in this text go back to US20260200905A1, “MICROBIOCIDAL TETRAHYDROISOQUINOLINE DERIVATIVES” (SYNGENTA CROP PROTECTION AG, priority 2022, published 2026).

Molecules are shown by their SMILES.

What all share (type): cell-based
The subject of experiment [1] is Mycosphaerella graminicola (Septoria tritici). The experiment can be described thus: Mycosphaerella graminicola (Septoria tritici) / liquid culture (Septoria blotch). The conditions noted are these: Zymoseptoria tritici, growth inhibition photometrically 4 to 5 days after application, read-out: control of Mycosphaerella graminicola. How it is done:
Example B12: Mycosphaerella graminicola (Septoria tritici)/Liquid Culture (Septoria Blotch) Conidia of the fungus from cryogenic storage are directly mixed into nutrient broth (PDB potato dextrose broth). After placing a (DMSO) solution of test compound into a microtiter plate (96-well format), the nutrient broth containing the fungal spores is added. The test plates are incubated at 24° C. and the inhibition of growth is determined photometrically 4 to 5 days after application.

Experiment [2] concerns Mycosphaerella arachidis (Cercospora arachidicola). The experiment can be described thus: Mycosphaerella arachidis (Cercospora arachidicola) / liquid culture (early leaf spot). The following applies: growth inhibition photometrically 4 to 5 days after application, read-out: control of Mycosphaerella arachidis. How it is done: Example B6: Mycosphaerella arachidis (Cercospora arachidicola)/Liquid Culture (Early Leaf Spot) Conidia of the fungus from cryogenic storage are directly mixed into nutrient broth (PDB potato dextrose broth). After placing a (DMSO) solution of test compound into a microtiter plate (96-well format), the nutrient broth containing the fungal spores is added. The test plates are incubated at 24° C. and the inhibition of growth is determined photometrically 4 to 5 days after application.

Experiment [3] concerns Monographella nivalis (Microdochium nivale). The experiment can be described thus: Monographella nivalis (Microdochium nivale) / liquid culture (foot rot cereals). The conditions noted are these: growth inhibition photometrically 4 to 5 days after application, read-out: control of Monographella nivalis. The procedure: Example B5: Monographella nivalis (Microdochium nivale)/Liquid Culture (Foot Rot Cereals) Conidia of the fungus from cryogenic storage are directly mixed into nutrient broth (PDB potato dextrose broth). After placing a (DMSO) solution of test compound into a microtiter plate (96-well format), the nutrient broth containing the fungal spores is added. The test plates are incubated at 24° C. and the inhibition of growth is determined photometrically 4 to 5 days after application.

Regarding `Cc1cncc(C2CN(C(=O)c3cc(-c4ccc(F)cc4F)on3)Cc3ccccc32)c1` (stereo not drawn) [Compound P-22, [5-(2,4-difluorophenyl)isoxazol-3-yl]-[4-(5-methyl-3-pyridyl)-3,4-dihydro-1H-isoquinolin-2-yl]methanone], the inhibition of growth at 20 ppm in experiment [1] is at least 80%.
Turning to `O=C(c1cc(-c2ccc(F)cc2F)on1)N1Cc2ccccc2C(c2cnccc2Cl)C1` (stereo not drawn) [Compound P-24, [4-(4-chloro-3-pyridyl)-3,4-dihydro-1H-isoquinolin-2-yl]-[5-(2,4-difluorophenyl)isoxazol-3-yl]methanone], the inhibition of growth at 20 ppm in experiment [1] is at least 80%.
Turning to `Cc1c(C2CN(C(=O)c3nnc(-c4ccc(F)cc4F)s3)Cc3ccccc32)nc(Cl)n1C` (stereo not drawn) [Compound P-11, [4-(2-chloro-1,5-dimethyl-imidazol-4-yl)-3,4-dihydro-1H-isoquinolin-2-yl]-[5-(2,4-difluorophenyl)-1,3,4-thiadiazol-2-yl]methanone], the inhibition of growth at 20 ppm in experiment [2] and in experiment [1] was at least 80% each time.
With `Cc1c(C2CN(C(=O)c3cc(-c4ccc(F)cc4F)on3)Cc3ccccc32)cc(C#N)n1C` (stereo not drawn) [Compound P-20, 4-[2-[5-(2,4-difluorophenyl)isoxazole-3-carbonyl]-3,4-dihydro-1H-isoquinolin-4-yl]-1,5-dimethyl-pyrrole-2-carbonitrile], the inhibition of growth at 20 ppm in experiment [1] was at least 80%.
As for `O=C(c1cc(-c2ccc(F)cc2F)on1)N1Cc2ccccc2C(c2ccc(F)nc2)C1` (stereo not drawn) [Compound P-12, [5-(2,4-difluorophenyl)isoxazol-3-yl]-[4-(6-fluoro-3-pyridyl)-3,4-dihydro-1H-isoquinolin-2-yl]methanone], the inhibition of growth at 20 ppm in experiment [3] and in experiment [1] was at least 80% in each case.
Regarding `O=C(c1cc(-c2ccccc2)on1)N1Cc2ccccc2C(c2ccc(F)nc2)C1` (stereo not drawn) [Compound P-34, [4-(6-fluoro-3-pyridyl)-3,4-dihydro-1H-isoquinolin-2-yl]-(5-phenylisoxazol-3-yl)methanone], in experiment [1], the inhibition of growth at 20 ppm was at least 80%.
In the case of `Cc1c(C2CN(C(=O)c3cc(-c4ccccc4)on3)Cc3ccccc32)cc(C#N)n1C` (stereo not drawn) [Compound P-26, 1,5-dimethyl-4-[2-(5-phenylisoxazole-3-carbonyl)-3,4-dihydro-1H-isoquinolin-4-yl]pyrrole-2-carbonitrile], the inhibition of growth at 20 ppm in experiment [1] is at least 80%.
Same read-out and setting: for `Cc1ncc(C2CN(C(=O)c3cc(-c4ccccc4)on3)Cc3ccccc32)cc1Cl` (stereo not drawn) [Compound P-29, [4-(5-chloro-6-methyl-3-pyridyl)-3,4-dihydro-1H-isoquinolin-2-yl]-(5-phenylisoxazol-3-yl)methanone] the value was at least 80%; for `Cn1cc(C2CN(C(=O)c3cc(-c4ccc(F)cc4F)on3)Cc3ccccc32)nn1` (stereo not drawn) [Compound P-35, [5-(2,4-difluorophenyl)isoxazol-3-yl]-[4-(1-methyltriazol-4-yl)-3,4-dihydro-1H-isoquinolin-2-yl]methanone], at least 80%.
Still for that read-out and setting: for `CC1(c2cccnc2)CN(C(=O)c2cc(-c3ccc(F)cc3F)on2)Cc2ccccc21` (stereo not drawn) [Compound P-27, [5-(2,4-difluorophenyl)isoxazol-3-yl]-[4-methyl-4-(3-pyridyl)-1,3-dihydroisoquinolin-2-yl]methanone] the value was at least 80%.
Same read-out and setting: for `Cn1nc(C2CN(C(=O)c3cc(-c4ccc(F)cc4F)on3)Cc3ccccc32)cc1Br` (stereo not drawn) [Compound P-21, [4-(5-bromo-1-methyl-pyrazol-3-yl)-3,4-dihydro-1H-isoquinolin-2-yl]-[5-(2,4-difluorophenyl)isoxazol-3-yl]methanone] the value was at least 80%; for `Cc1nc(C2CN(C(=O)c3cc(-c4ccccc4)on3)Cc3ccccc32)c(Cl)n1C` (stereo not drawn) [Compound P-31, [4-(5-chloro-1,2-dimethyl-imidazol-4-yl)-3,4-dihydro-1H-isoquinolin-2-yl]-(5-phenylisoxazol-3-yl)methanone], at least 80%; for `Cc1c(C2CN(C(=O)c3nnc(-c4ccc(F)cc4F)s3)Cc3ccccc32)cc(C#N)n1C` (stereo not drawn) [Compound P-28, 4-[2-(5-(2,4-difluorophenyl)-1,3,4-thiadiazole-2-carbonyl]-3,4-dihydro-1H-isoquinolin-4-yl]-1,5-dimethyl-pyrrole-2-carbonitrile], at least 80%.
As to `Cc1c(C2CN(C(=O)c3cc(-c4ccc(F)cc4)on3)Cc3ccccc32)cc(C#N)n1C` (stereo not drawn) [Compound P-18, 4-[2-[5-(4-fluorophenyl)isoxazole-3-carbonyl]-3,4-dihydro-1H-isoquinolin-4-yl]-1,5-dimethyl-pyrrole-2-carbonitrile], the inhibition of growth at 20 ppm in experiment [1] is at least 80%.
In the case of `Cc1ccncc1C1CN(C(=O)c2cc(-c3ccc(F)cc3F)on2)Cc2ccccc21` (stereo not drawn) [Compound P-14, [5-(2,4-difluorophenyl)isoxazol-3-yl]-[4-(4-methyl-3-pyridyl)-3,4-dihydro-1H-isoquinolin-2-yl]methanone], the inhibition of growth at 20 ppm in experiment [2] and in experiment [1] was at least 80% in each case.
As to `Cn1c(Cl)nc(C2CN(C(=O)c3cc(-c4ccc(F)cc4F)on3)Cc3ccccc32)c1Cl` (stereo not drawn) [Compound P-10, [4-(2,5-dichloro-1-methyl-imidazol-4-yl)-3,4-dihydro-1H-isoquinolin-2-yl]-[5-(2,4-difluorophenyl)isoxazol-3-yl]methanone], the inhibition of growth at 20 ppm in experiment [2] and in experiment [1] was at least 80% each time.
Turning to `Cc1nc(C2CN(C(=O)c3cc(-c4ccc(F)cc4F)on3)Cc3ccccc32)c(Cl)n1C` (stereo not drawn) [Compound P-17, [4-(5-chloro-1,2-dimethyl-imidazol-4-yl)-3,4-dihydro-1H-isoquinolin-2-yl]-[5-(2,4-difluorophenyl)isoxazol-3-yl]methanone], the inhibition of growth at 20 ppm in experiment [1] was at least 80%.
Still for that read-out and setting: for `Cn1cnc(C2CN(C(=O)c3cc(-c4ccc(F)cc4F)on3)Cc3ccccc32)n1` (stereo not drawn) [Compound P-33, [5-(2,4-difluorophenyl)isoxazol-3-yl]-[4-(1-methyl-1,2,4-triazol-3-yl)-3,4-dihydro-1H-isoquinolin-2-yl]methanone] the value was at least 80%; for `Cc1c(C2CN(C(=O)c3cc(-c4ccc(F)cc4F)on3)Cc3ccccc32)nc(Cl)n1C` (stereo not drawn) [Compound P-16, [4-(2-chloro-1,5-dimethyl-imidazol-4-yl)-3,4-dihydro-1H-isoquinolin-2-yl]-[5-(2,4-difluorophenyl)isoxazol-3-yl]methanone], at least 80%; for `Cc1nc(C2CN(C(=O)c3cc(-c4ccc(F)cc4F)on3)Cc3ccccc32)no1` (stereo not drawn) [Compound P-25, [5-(2,4-difluorophenyl)isoxazol-3-yl]-[4-(5-methyl-1,2,4-oxadiazol-3-yl)-3,4-dihydro-1H-isoquinolin-2-yl]methanone], at least 80%.
On to `Cc1ncccc1C1CN(C(=O)c2cc(-c3ccc(F)cc3F)on2)Cc2ccccc21` (stereo not drawn) [Compound P-13, [5-(2,4-difluorophenyl)isoxazol-3-yl]-[4-(2-methyl-3-pyridyl)-3,4-dihydro-1H-isoquinolin-2-yl]methanone], for which the inhibition of growth at 20 ppm in experiment [2] and in experiment [1] was at least 80% each time.
In the case of `CC1(c2cccnc2)CN(C(=O)c2cc(-c3ccccc3)on2)Cc2ccccc21` (stereo not drawn) [Compound P-32, [4-methyl-4-(3-pyridyl)-1,3-dihydroisoquinolin-2-yl]-(5-phenylisoxazol-3-yl)methanone], the inhibition of growth at 20 ppm in experiment [1] was at least 80%.
`O=C(c1cc(-c2ccc(F)cc2F)on1)N1Cc2ccccc2C(c2ccccn2)C1` (stereo not drawn) [Compound P-15, [5-(2,4-difluorophenyl)isoxazol-3-yl]-[4-(2-pyridyl)-3,4-dihydro-1H-isoquinolin-2-yl]methanone]: the inhibition of growth at 20 ppm in experiment [3] and in experiment [1] was at least 80% throughout.
With `O=C(c1cc(-c2ccc(F)cc2F)on1)N1Cc2ccccc2C(c2cccnn2)C1` (stereo not drawn) [Compound P-36, [5-(2,4-difluorophenyl)isoxazol-3-yl]-(4-pyridazin-3-yl-3,4-dihydro-1H-isoquinolin-2-yl)methanone], the inhibition of growth at 20 ppm in experiment [1] is at least 80%.
The same measure, in the same setting: for `Cc1nc(C2CN(C(=O)c3cc(-c4ccc(F)cc4F)on3)Cc3ccccc32)nn1C` (stereo not drawn) [Compound P-39, [5-(2,4-difluorophenyl)isoxazol-3-yl]-[4-(1,5-dimethyl-1,2,4-triazol-3-yl)-3,4-dihydro-1H-isoquinolin-2-yl]methanone] the value was at least 80%.
For `O=C(c1cc(-c2ccccc2)on1)N1Cc2ccccc2C(c2cnccc2Cl)C1` (stereo not drawn) [Compound P-30, [4-(4-chloro-3-pyridyl)-3,4-dihydro-1H-isoquinolin-2-yl]-(5-phenylisoxazol-3-yl)methanone], the inhibition of growth at 20 ppm in experiment [1] is at least 80%.
With `Cc1ncc(C2CN(C(=O)c3cc(-c4ccc(F)cc4F)on3)Cc3ccccc32)cc1Cl` (stereo not drawn) [Compound P-23, [4-(5-chloro-6-methyl-3-pyridyl)-3,4-dihydro-1H-isoquinolin-2-yl]-[5-(2,4-difluorophenyl)isoxazol-3-yl]methanone], the inhibition of growth at 20 ppm in experiment [1] is at least 80%.
